Reference: US20090325863A1, “Somatostatin analogs and IGF-I inhibition for breast cancer prevention” (priority 2008, published 2009)
“Also recorded” adds a separate entry of the source. Marks after values point to notes of the source that are not given here. Bridges are numbered along the chain shown (N, C = ends). Where no end group is shown, it is not given here.

Assays:
[1] = test system: hGH induced TEB formation; assay: Hyperplastic terminal endbuds (TEBs) in mammary gland whole mounts, hGH+E2 model; assay type: in vivo, rat; conditions: hGH+E2, 7 days; reduced from 86.5 (86) TEBs in hGH+E2 control
Source text: At the end of 7 days one lumbar mammary gland was removed for whole mount analysis and the other for histological analysis. Hyperplastic TEBs were counted in the whole mounts. […] Representative photomicrographs of the whole mounts are provided in FIG. 5 and suppression by the different treatments is shown graphically in FIG. 6.

[2] = test system: development of breast cancer; conditions: women with hyperplastic lesions of the breast; cited from earlier work
[3] = test system: mammary hyperplasia induced by hGH and E2; assay: Mammary hyperplasia model induced by hGH and E2, counts in histological sections; assay type: in vivo, rat; conditions: for Total# / Mild# / Moderate# / Florid# / DH#: Table 3; for Total#: SOM230 30 mcg/h/kg, Octreotide 30 mcg/hr/kg, Tamoxifen 30 mg/21 day release pellet, GH + E2 control 88.3 ± 6.3; for Mild# / Moderate# / Florid# / DH#: same doses; for Mild#: GH + E2 control 4.4 ± 0.6; for Moderate#: GH + E2 control 5.3 ± 0.6; for Florid#: GH + E2 control 10 ± 0.7; for DH#: GH + E2 control 19.7 ± 1.5; for inhibitory effect on hyperplasia compared with SOM230 alone (in words): hGH+E2 model, 7 days, no dose response comparison
Source text: To test whether SOM230, a drug that inhibits IGF-I action on the breast, was effective, we implemented a model of hyperplasia and then determined whether the hyperplasia could be inhibited by SOM230. We administered human growth hormone (600 mcg in alzet pumps) for a week, and gave this together with estradiol (an estrogen). At the end of 7 days florid hyperplasia developed. Mammary hyperplasia was modeled by treating hypophysectomized, oophorectomized female rats with high doses human growth hormone (hGH) (600 μg in Alzet pumps) and follicular phase concentrations of estradiol (E2) administered in silastic capsules for 7 days. In the absence of hGH, these animals would not undergo mammary development. In animals receiving E2 alone, there was virtually no hyperplasia. When hGH was added to E2 there were more glands (42.2±1.4 vs. 71.9±5.4, E2 vs. E2+hGH, respectively). There was no florid hyperplasia with E2 treatment. When hGH was given also, 26.6% of the glands were hyperplastic, with 50% of those being floridly hyperplastic, 7% moderate hyperplasia and 5.9% mild hyperplasia. […] This is shown in histological sections (FIG. 1), graphically (FIG. 2) and in tabular form below (TABLE 1).
Background: Antiestrogens or aromatase inhibitors are used for breast cancer chemoprevention. These treatments cause unpleasant side effects including hot flashes and vaginal dryness. We have previously shown that IGF-I is required to permit estrogen and progesterone action in the mammary gland. […] Menopausal symptoms would not likely to occur with SOM230 since estrogen is not lowered. Material and Methods: We have approached this issue in several ways. 1) We developed a model of hyperplasia in hypophysectomized and oophorectomized female rats. Hyperplasia was induced by treatment with 600 mcg hGH and follicular phase concentrations of estradiol. Hyperplasia was assessed histologically in sections of mammary gland. 2) To assess translatability to humans we assessed cell proliferation and apoptosis in normal human breast from reduction mammoplasties and samples of usual hyperplasia. 3) We also determined availability of SST receptors in samples of atypical ductal hyperplasia and DCIS, and 4) We have begun to determine whether SOM230 will prevent hyperplasia in humans at risk for breast cancer as it does in rats.
The degree of hyperplasia was analyzed in 3 histological sections at different levels in 3 test animals given GH+E2. The different types of hyperplasia were counted. For example, the total mean number of ducts was 88.3. Of those ducts, there were 19.7 or 22.3% of total ducts that were hyperplastic. The breakdown was a mean of 10 ducts with florid hyperplasia (lumen is distended and mostly obliterated by epithelial cells), a mean of 5.3 ducts with moderate hyperplasia (an increase in cell layers to >4 cells thick), and a mean of 4.4 characterized as mild hyperplasia (no more than 4 cell thickness).
There were 4 additional treatment groups and one E2 treated control group.

[4] = test system: pYIRS-1 (phosphorylated IRS-1), product of IGF-I action; assay: Immunostaining for phosphorylated IRS-1 in mammary gland, hGH+E2 model; assay type: in vivo, rat; conditions: hGH+E2 treated animals; staining most intense with hGH+E2
Source text: FIG. 12 depicts immunostaining for pYIRS-1 (phosphorylated IRS-1) in a representative E2 treated control (upper left), an hGH+E2 treated animal (upper right), an hGH+E2+SOM230 treated animal (lower left) and an hGH+E2+tamoxifen treated animal (lower right). The intensity of staining parallels IGF-I action as phosphorylated IRS-1 is a product of IGF-I action. In this study, staining (brown color) was most intense in response to hGH+E2 and was inhibited by both SOM230 and tamoxifen. […] This reflection of inhibition of IGF-I activity also supports the greater inhibitory effect of SOM230 over that of tamoxifen.

mammary development = assay: Mammary development of CD female mice (TEB, branch, area in whole mounts); assay type: in vivo
Method: The effect of PQ401 and Somatostatin 14 (SS14) on mammary development of CD female mice was determined. FIG. 10 depicts control animals at 21 and 28 days versus 28 day old animals treated with PQ401 for 7 days and 28 day old animals treated with SS14 for 7 days.

CC/C(=C(\c1ccccc1)c1ccc(OCCN(C)C)cc1)c1ccccc1 [Tamoxifen]
number of hyperplastic TEBs in whole mounts [1]: 49 | prevention of the development of cancer [2]: about 50% | Total# [3]: 74.2 ± 7.7 | Mild# [3]: 3.6 ± 0.4 | Moderate# [3]: 4.8 ± 0.6 | Florid# [3]: 4.5 ± 0.6^e | DH# [3]: 12.4 ± 1.5 | inhibitory effect on hyperplasia compared with SOM230 alone (in words) [3]: significantly less effective than SOM230 | inhibitory effect on hyperplasia compared with SOM230 alone (in words) ([3]; listed as tamoxifen): significantly lower than SOM230 alone | intensity of pYIRS-1 immunostaining [4]: inhibited; also recorded: more intense than in the SOM230 treated one

Octreotide
number of hyperplastic TEBs in whole mounts [1]: 60 | Total# [3]: 76.3 ± 7.3 | Mild# [3]: 4.6 ± 0.8 | Moderate# [3]: 5.8 ± 1.0 | Florid# [3]: 5.0 ± 0.8^e | DH# [3]: 15.4 ± 2.6 | inhibitory effect on hyperplasia compared with SOM230 alone (in words) [3]: significantly lower than SOM230 alone

Somatostatin 14: Somatostatin 14 (SS14) (AGCKNFFWKTFTSC; disulfide 3-14; ends not checked; UniProt P61278 103-116, looked up)
TEB (number) (mammary development; 28 day old CD female mice treated 7 days, PQ401 100/kgbw ip thrice weekly, SS14 15 mcg/hr/Kg Alzet pump, 28d control 18.6 ± 1.5): 18.5 ± 1.5 | area % (mammary development; same treatment, 28d control 52.2 ± 2.0, 21d control 23 ± 3.2): 36.3 ± 6.2%
